The target in the assay is T1, human PPAR alpha (Homo sapiens, UniProt Q07869).
T1 sequence (Q07869 1-468): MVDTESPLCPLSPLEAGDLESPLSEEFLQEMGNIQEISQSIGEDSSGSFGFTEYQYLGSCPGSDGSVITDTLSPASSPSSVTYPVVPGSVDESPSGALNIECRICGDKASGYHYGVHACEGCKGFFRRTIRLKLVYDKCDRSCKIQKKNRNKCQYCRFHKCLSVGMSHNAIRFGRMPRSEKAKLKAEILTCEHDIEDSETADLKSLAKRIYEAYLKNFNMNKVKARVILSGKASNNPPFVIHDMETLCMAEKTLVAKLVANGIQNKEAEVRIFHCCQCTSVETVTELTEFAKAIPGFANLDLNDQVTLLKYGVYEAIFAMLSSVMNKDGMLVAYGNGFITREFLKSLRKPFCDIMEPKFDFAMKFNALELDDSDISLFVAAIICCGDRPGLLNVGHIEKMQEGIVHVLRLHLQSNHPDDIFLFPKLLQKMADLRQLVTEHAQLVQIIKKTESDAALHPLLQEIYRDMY
The assay is described as follows: PPAR alpha assay as described in WO03/051821. To be noted: assay described in WO03/051821 (incorporated by reference). It is filed as cell-based. The method, then:
The compounds of the invention were tested in the assays described in WO03/051821 which is incorporated herein by reference.

In the case of `O=C(c1ccccc1)c1ccc(OCCc2ccc(CC(SCCc3ccc(O)cc3)C(=O)O)cc2)cc1` (stereo not shown) [Example 7, 3-{4-[2-(4-Benzoylphenoxy)ethyl]phenyl}-2-{[2-(4-hydroxyphenyl)ethyl]thio}propanoic acid], a half-maximal response (EC50) required 780 nM.

The values above are taken from patent publication US20060199857A1, “Therapeutic agents” (ASTRAZENECA UK LIMITED, priority 2003, published 2006).
